Like-named read-outs stand apart in the source and are kept apart here.
Experiments:
[1] = test system: uptake of noradrenaline by the neurons (synaptosomes); assay: Inhibition of noradrenaline uptake by synaptosomes of homogenized cerebrum; assay type: biochemical; details: rat cerebrum synaptosomes, 10 minutes at 37° C.; read-out: Noradrenaline inhibition IC 50
Experimental: (§1) It is now believed that various forms of depression cause a deficiency of certain physiologically important amines, particularly noradrenaline and serotonin, in certain parts of the brain, and that the amount of such amines may be increased by inhibiting their uptake by neurons.
(§2) The test is performed on the homogenized, isolated cerebrum of the rat. A suspension of synaptosomes thus obtained is incubated with […] noradrenaline and/or serotonin and various concentrations of a solution of the test substance in water for 10 minutes at 37° C. When the incubation is finished, the medium is separated by filtering, and the radioactivity of the suspension of synaptosomes is measured.
(§3) A control test in the absence of the test substance is simultaneously carried out in order to determine the quantity of radioactive amines taken up. The quantity of the test substance in mols which is required to inhibit 50% of the uptake is designated the IC 50.

[2] = test system: hypothermic effect caused by reserpine; assay: Reserpine antagonism (elimination of the hypothermic effect caused by reserpine); assay type: in vivo; details: Mus musculus, mice, oral, 17 h after 2 mg/kg i.p. reserpine
Experimental: A further test for determining anti-depressive activity is based on reserpine-antagonism, that is, the elimination of the hypothermic effect caused by reserpine. The test is carried out in mice, 5 animals being used per dosage test. Seventeen hours after i.p. administration of 2 mg/kg of reserpine, the body temperature is measured peripherally while at a room temperature of 19° C. Afterwards, the test substance is administered orally, and the body temperature is measured after 1, 3, 5 and 7 hours. For each measured period a mean effective dose (ED50) is determined. This is the dosage at which the body temperature of the animals treated with reserpine approaches the normal temperature of untreated controls by 50%.

[3] = test system: uptake of serotonin by the neurons (synaptosomes); assay: Inhibition of serotonin uptake by synaptosomes of homogenized cerebrum; assay type: biochemical; details: rat cerebrum synaptosomes, 10 minutes at 37° C.; read-out: Serotonin inhibition IC 50
Experimental: as §1, §2, §3

[4] = 1 hour, read-out: Reserpine antagonism after 1 hour (ED50)
[5] = 3 hours, read-out: Reserpine antagonism after 3 hours (ED50)
[6] = 5 hours, read-out: Reserpine antagonism after 5 hours (ED50)
[7] = 7 hours, read-out: Reserpine antagonism after 7 hours (ED50)

Structure (SMILES) | IC50 [1] | ED50 [2, 4] | ED50 [2, 5] | ED50 [2, 6] | ED50 [2, 7] | IC50 [3]
CN1Cc2c(ccn2C)C(c2ccc(F)cc2)C1.Cl (stereo not drawn) [1,6-dimethyl-4-(p-fluorophenyl)-4,5,6,7-tetrahydro-pyrrolo-[2,3-c]pyridine hydrochloride] | 6700 nM | < 10 mg/kg | < 10 mg/kg | < 10 mg/kg | < 10 mg/kg | 180 nM
CN1Cc2c(cc(CN3CCOCC3)n2C)C(c2ccccc2)C1 (stereo not drawn) [1,6-Dimethyl-2-morpholinomethyl-4-phenyl-4,5,6,7-tetrahydropyrrolo[2,3-c]pyridine] | 6600 nM | > 40 mg/kg | 16 mg/kg | 10 mg/kg | < 40 mg/kg | 1600 nM
CCN1Cc2c(ccn2C)C(c2ccc(C)cc2)C1.Cl (stereo not drawn) [1-methyl-4-(p-tolyl)-6-ethyl-4,5,6,7-tetrahydro-pyrrolo-[2,3-c]pyridine hydrochloride] | 600 nM | > 40 mg/kg | < 10 mg/kg | 10 mg/kg | > 40 mg/kg | 20 nM
CN(CCO)Cc1cc2c(n1C)CN(C)CC2c1ccc(Br)cc1 (stereo not drawn) [1,6-dimethyl-2-N-methyl-N-β-hydroxyethyl-aminomethyl-4-(p-bromophenyl)-4,5,6,7-tetrahydro-pyrrolo[2,3-c]-pyridine dimaleate] | 1300 nM | 10 mg/kg | < 10 mg/kg | 13 mg/kg | 10 mg/kg | 380 nM
Cn1ccc2c1CNCC2c1ccc(Br)cc1.O=C(O)/C=C\C(=O)O (stereo not drawn) [1-methyl-4-(p-bromophenyl)-4,5,6,7-tetrahydro-pyrrolo-[2,3-c]pyridine maleate] | 6900 nM | 36 mg/kg | 10 mg/kg | 30 mg/kg | 40 mg/kg | 530 nM
CN1Cc2c(cc(CN3CCCCC3)n2C)C(c2ccc(Br)cc2)C1 (stereo not drawn) [1,6-dimethyl-2-piperidino-methyl-4-(p-bromophenyl)-4,5,6,7-tetrahydro-pyrrolo-[2,3-c]pyridine dimaleate] | – | > 40 mg/kg | 40 mg/kg | 40 mg/kg | > 40 mg/kg | –
CN1Cc2c(cc(Br)n2C)C(c2ccc(Br)cc2)C1 (stereo not drawn) [1,6-dimethyl-2-bromo-4-(p-bromophenyl)-4,5,6,7-tetrahydro-pyrrolo[2,3-c]-pyridine] | 1800 nM | > 40 mg/kg | 14 mg/kg | < 10 mg/kg | 10 mg/kg | 440 nM
CN1Cc2c(cc(CN3CCCC3)n2C)C(c2ccc(Br)cc2)C1 (stereo not drawn) [1,6-dimethyl-2-pyrrolidino-methyl-4-(p-bromophenyl)-4,5,6,7-tetrahydro-pyrrolo-[2,3-c]pyridine dimaleate] | – | > 40 mg/kg | < 10 mg/kg | 10 mg/kg | < 10 mg/kg | –
CN1Cc2c(ccn2C)C(c2ccc(Cl)cc2)C1.Cl (stereo not drawn) [1,6-dimethyl-4-(p-chlorophenyl)-4,5,6,7-tetrahydro-pyrrolo-[2,3-c]pyridine hydrochloride] | 1500 nM | < 10 mg/kg | < 10 mg/kg | < 10 mg/kg | < 10 mg/kg | 40 nM
Cc1ccc(C2CN(C)Cc3c2ccn3C)cc1.Cl (stereo not drawn) [1,6-dimethyl-4-(p-tolyl)-4,5,6,7-tetrahydro-pyrrolo-[2,3-c]pyridine hydrochloride] | 4900 nM | > 40 mg/kg | < 10 mg/kg | 16 mg/kg | < 10 mg/kg | 40 nM
CN1Cc2c(ccn2C)C(c2ccc(Br)cc2)C1 (stereo not drawn) [1,6-Dimethyl-4-(p-bromophenyl)-4,5,6,7-tetrahydro-pyrrolo[2,3-c]pyridine] | 1250 nM | 20 mg/kg | 6 mg/kg | 40 mg/kg | 40 mg/kg | 90 nM
CN1Cc2c(cc(CN3CCCCCC3)n2C)C(c2ccc(Br)cc2)C1 (stereo not drawn) [1,6-dimethyl-2-hexahydro-azepine-1-yl-methyl-4-(p-bromophenyl)-4,5,6,7-tetrahydro-pyrrolo[2,3-c]-pyridine dimaleate] | – | < 10 mg/kg | < 10 mg/kg | 20 mg/kg | > 40 mg/kg | –

Source: patent publication US4315938A, “4-Phenyl-4,5,6,7-tetrahydro-pyrrolo [2,3-c] pyridines and salts thereof” (Boehringer Ingelheim Gmbh, priority 1979, dated 1982)
